“Also recorded” adds a separate entry of the source. Read-outs that look alike come from different tables or passages of the source. Where a SMILES comes first, the peptide text is derived from it. [ ]: non-standard residue; d: D form. The star is where a group is joined. Nle = CCCC[C@H](N)C(=O)O; Cbz = O=C(OCc1ccccc1)*
Legend:
APP [1] = experiment: Western blot analysis of APP C-terminal fragments (C99, C83, C470, ~55/~85-kDa CTFs) in AC29 cells stably transfected with APP; type: cell-based, human; parameters: steady state levels of C99 / APP-CTF levels (C99, C83, C470) compared with ALLN results: dose or concentration left out as unconfirmed
Protocol: Wild-type (WT) and cholesterol mutant (AC29 and 25RA) CHO cell lines were grown in Dulbecco's Modified Eagle Medium (DMEM) and Nutrient Mixture F-12 Ham (Sigma-Aldrich, St. Louis, Mo.), respectively. Media were supplemented with 10% (v/v) FBS (Atlanta Biologicals, Norcross, Ga.), 1% (v/v) L-Glutamine-Penicillin-Streptomycin solution (Sigma-Aldrich), and 0.4% (v/v) G418 Sulfate (Calbiochem, La Jolla, Calif.) as selection marker for cells stably transfected with cDNA constructs expressing APP751 or APP(ES/AA), and hygromycin for […]-[…] in a […] TOPO expression vector (Invitrogen, Carlsbad, Calif.). Cells were cultured at 37° C. in a water-saturated air/CO2 atmosphere. The following antibodies against APP were used throughout this study: 22C11 (monoclonal, against N-terminus; Chemicon International, Temecula, Calif.); 369 (monoclonal, against C-terminus; generous gift from Dr. Sam Gandy, Farber Institute for Neuroscience, Thomas Jefferson University, Philadelphia, Pa.); C7 and C8 (against C-terminus; generous gift from Dr. Dennis J. Selkoe, Harvard Medical School, Boston, Mass.); 4G8 (monoclonal, against […]β; Endogen, Woburn, Mass.); 6E10 (monoclonal, against residues 1-17 of Aβ; Senetek, St. Louis, Mo.). Antibodies against calreticulin (ER marker), GM130 (Golgi marker), and EEA-1 (early endosomes) were obtained from StressGen Biotechnologies Corp. (Victoria BC, Canada) and Transduction Laboratories (Lexington, Ky.). Anti-V5 antibody was from Invitrogen (Carlsbad, Calif.). Additional materials used in this study include the γ-secretase inhibitor DAPT (generous gift from Dr. Rudolph E. Tanzi, Massachusetts General Hospital, Charlestown, Mass.), the β-secretase inhibitor Z-VLL-CHO (Calbiochem, La Jolla, Calif.), ALLN (Calbiochem), lactacystin (Sigma-Aldrich), ammonium chloride (Sigma-Aldrich), chloroquine (Sigma-Aldrich), methyl-(3-cyclodextrin (Sigma-Aldrich), and mevastatin (Sigma).

AC29 cells [2] = experiment: Cholesterol determinations (intracellular FC and CE pools); type: cell-based; parameters: cholesterol levels: dose or concentration left out as unconfirmed; details: AC29 cells stably transfected with APP
Protocol: For the determinations of intracellular pools of FC and CE, cells were first incubated ad equilibrium (for 3 days) in the presence of [^14C]Acetic acid (57.0 mCi/mmol) (Amersham Life Science, Elk Grove, Ill.), then washed twice in PBS and extracted in chloroform/methanol (2:1; v/v). The chloroform phase was dried, resuspended again in chloroform, and applied with standards to a Silica Gel-G (EM Science, Gibbstown, N.J.) Thin Layer Chromatography (TLC). Plates were developed in hexane/ethyl ether/acetic acid (87:20:1, v/v) and visualized with […]. Spots were scraped and counted in a liquid scintillation counter.

AC29 cells [3] = experiment: Cell viability by release of lactate-dehydrogenase (LDH) into the media; type: cell-based; details: mβ-CD for 24 hours
Protocol: To establish whether the generation of the 55- and 85-kDa APP-CTFs was affected by FC in the absence of changes in CEs, we depleted AC29 cells of cholesterol using a combination of methyl β-cyclodextrin (m#-CD), a sterol-binding molecule, and mevastatin, an HMG-CoA reductase inhibitor. In our studies, mβ-CD was used for 24 hours to allow for cellular cholesterol to reach equilibrium. Cell viability was not affected, as assessed by the release of the cytosolic enzyme lactate-dehydrogenase (LDH) into the media. […] However, it is important to note that normalized FC in AC29 cells only recovered 50% of the Aβ secreted by WT CHO cells (FIG. 2B), the other 50% still missing presumably due to the absence of CE synthesis in these cells. Both ˜55- and ˜85-kDa APP-CTFs were undetectable after successful normalization of FC (FIG. 2C).

APP [4] = biological target: APP (Homo sapiens, UniProt P05067); experiment: In vitro assays of APP degradation by recombinant HtrA2; type: biochemical
APP (Homo sapiens, UniProt P05067), sequence (P05067 18-770): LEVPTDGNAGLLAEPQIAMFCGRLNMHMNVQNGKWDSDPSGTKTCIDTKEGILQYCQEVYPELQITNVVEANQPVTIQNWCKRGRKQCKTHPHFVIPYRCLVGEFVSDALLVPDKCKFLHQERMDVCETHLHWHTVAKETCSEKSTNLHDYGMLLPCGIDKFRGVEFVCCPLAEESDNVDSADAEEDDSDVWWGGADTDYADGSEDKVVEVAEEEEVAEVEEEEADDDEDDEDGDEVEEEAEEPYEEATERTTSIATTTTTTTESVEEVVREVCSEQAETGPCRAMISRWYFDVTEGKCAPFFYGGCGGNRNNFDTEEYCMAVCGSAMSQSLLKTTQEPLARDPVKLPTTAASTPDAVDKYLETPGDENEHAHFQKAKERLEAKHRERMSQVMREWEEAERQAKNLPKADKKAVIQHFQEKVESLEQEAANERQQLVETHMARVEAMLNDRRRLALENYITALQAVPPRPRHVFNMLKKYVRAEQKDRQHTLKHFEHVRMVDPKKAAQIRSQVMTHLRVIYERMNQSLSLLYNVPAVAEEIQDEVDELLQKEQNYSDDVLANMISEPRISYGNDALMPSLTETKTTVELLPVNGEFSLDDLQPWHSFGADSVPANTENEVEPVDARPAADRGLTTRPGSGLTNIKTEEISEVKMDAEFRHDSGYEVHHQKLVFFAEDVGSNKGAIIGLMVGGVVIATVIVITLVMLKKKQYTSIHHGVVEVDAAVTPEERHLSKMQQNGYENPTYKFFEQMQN
Source text: We determined that HtrA2 could serve as a chaperone binding to APP that under cellular stress could switch from chaperone to a protease that degrades misfolded APP. AC29 cells have elevated free (membrane) cholesterol level that may cause ER stress. In AC29 cells, levels of mature form of HtrA2 were elevated in the ER and Golgi as compared to the parental CHO cells (FIG. 10). Furthermore, HtrA2 localized to the cell surface in AC29 cells but not in the parental CHO cells (FIG. 11). Also we determined that HtrA2 co-purified with APP from mammalian cells (FIG. 10) and also co-immunoprecipitated with APP. In in vitro assays, recombinant HtrA2 degraded APP.

## C[C@H](NC(=O)Cc1cc(F)cc(F)c1)C(=O)N[C@H](C(=O)OC(C)(C)C)c1ccccc1 [DAPT]
APP [1]; 250 nM DAPT, antibody C7
  C83 levels: increased

## CCN(CC)CCCC(C)Nc1ccnc2cc(Cl)ccc12 (stereo not shown) [chloroquine]
APP [1]
  steady-state levels of C470: no effect; also recorded: did not affect

## CCCC[C@@H](C=O)NC(=O)[C@H](CC(C)C)NC(=O)[C@H](CC(C)C)NC(C)=O [ALLN] (Ac-Leu-Leu-[Nle]-aldehyde)
APP [1]; alone, 24 hours
  steady state levels of C99: increased

## CC(=O)N[C@@H](CSC(=O)[C@]1([C@@H](O)C(C)C)NC(=O)[C@H](C)[C@@H]1O)C(=O)O [lactacystin]
APP [1]; lactacystin instead of ALLN, with or without Z-VLL-CHO, 24 hours
  APP-CTF levels (C99, C83, C470) compared with ALLN results: Very similar results

## CC(C)C[C@@H](C=O)NC(=O)[C@H](CC(C)C)NC(=O)[C@@H](NC(=O)OCc1ccccc1)C(C)C [Z-VLL-CHO] (Cbz-Val-Leu-Leu-aldehyde)
APP [1]; Z-VLL-CHO (0.5 mM) alone, 24 hours
  increase in steady-state levels of C470: not evident

## methyl β-cyclodextrin [mβ-CD]
AC29 cells [2]; mβ-CD (1 mM) alone
  FC levels: reduced, but did not normalize; also recorded: reduce but did not normalize
AC29 cells [3]
  Cell viability (LDH release into the media): not affected

## Cl.N [ammonium chloride]
APP [1]; ammonium chloride (NH4Cl, 10 mM)
  steady-state levels of C470: no effect; also recorded: did not affect

## CC[C@H](C)C(=O)O[C@H]1CCC=C2C=C[C@H](C)[C@H](CC[C@@H]3C[C@@H](O)CC(=O)O3)[C@H]21 [Mevastatin, mevastatin]
AC29 cells [2]
  cholesterol levels: did not induce significant changes

B1: recombinant HtrA2: serine protease containing a PDZ domain; protein with ζ cleavage activity (protein, UniProt O43464 134-458, looked up)
Serine protease HTRA2, …: AVPSPPPASPRSQYNFIADVVEKTAPAVVYIEILDRHPFLGREVPISNGSGFVVAADGLIVTNAHVVADRRRVRVRLLSGDTYEAVVTAVDPVADIATLRIQTKEPLPTLPLGRSADVRQGEFVVAMGSPFALQNTITSGIVSSAQRPARDLGLPQTNVEYIQTDAAIDFGNSGGPLVNLDGEVIGVNTMKVTAGISFAIPSDRLREFLHRGEKKNSSSGISGSQRRYIGVMMLTLSPSILAELQLREPSFPDVQHGVLIHKVILGSPAHRAGLRPGDVILAIGEQMVQNAEDVYEAVRTQSQLAVQIRRGRETLTLYVTPEVTE
APP [4]
  degradation of APP: degraded APP

— US20050170437A1, “Methods and compositions relating to modulating amyloid precursor protein cleavage” (The General Hospital Corporation, priority 2003, published 2005)
